Laboratory results: US11273165B2, “Applications for estradiol in preparing anti-small cell lung cancer and/or ovarian cancer and/or osteosarcoma products” (SHANGHAI JIAO TONG UNIVERSITY, priority 2015, dated 2022)
pEC50, pIC50: −log10 of the molar value.

Columns and labels:
Format in all cases: cell-based
[1] = tested on: SKOV-3 ovarian cancer cells; test: CellTiter-Glo luminescent cell viability assay, SKOV-3 ovarian cancer cells; details: Homo sapiens, 72 hours
Method: (§1) In example 1, CELLTITER-GLO was used to test estradiol against small-cell lung cancer and/or ovarian cancer and/or osteosarcoma epithelial cell carcinoma 1. Cell plating • a) The complete medium required for each cell was prepared. • b) Before beginning the experiment, the name of the drug screened for the cells marked on the 100 mm petri dish was confirmed as well as information such as the passage time and number of passages to ensure the experiment was error-free. • c) Refer to steps d) through i) for procedures for adherent cells; refer to steps j) through l) for procedures for suspension cells. • d) When using aseptic technique, a vacuum pump was used to draw the cell culture medium. • e) 2 ml of a sterile PBS solution was used to rinse the cell surface, and a vacuum pump was used to aspirate the PBS waste. • f) A 1 ml 0.25% (w/v) Trypsin-0.038% (w/v) EDTA solution was gently added to the petri dish for cell digestion, and after gently mixing several times, the solution covered the cell surfaces. […]

[2] = tested on: NCI-H82 small-cell lung cancer cells; test: CellTiter-Glo luminescent cell viability assay, NCI-H82 small-cell lung cancer cells; details: Homo sapiens, 72 hours
Method: as §1

U2OS osteosarcoma cells = test: CellTiter-Glo luminescent cell viability assay, U2OS osteosarcoma cells; details: Homo sapiens, 72 hours
Method: as §1

[3] = tested on: SNU-475 human hepatoma cells; test: CellTiter-Glo luminescent cell viability assay, SNU-475 human hepatoma cells; details: 72 hours
[4] = tested on: NCI-H810 human hepatoma cells; test: CellTiter-Glo luminescent cell viability assay, NCI-H810 human hepatoma cells; details: 72 hours
Method: as §1

For `C[C@]12CC[C@@H]3c4ccc(O)cc4CC[C@H]3[C@@H]1CC[C@@H]2O` [estradiol], the pIC50 ([1]; SK-OV-3, SKOV-3 ovarian cancer cells) was 5.51, the pEC50 ([1]; SK-OV-3, ovarian cancer cells, read-out: EC50 (estradiol sensitivity to ovarian cancer, FIG. 2)) was 5.52 and the pIC50 [2] was 4.79. For the same compound, the pEC50 ([2]; read-out: EC50 (estradiol sensitivity to small-cell lung cancer, FIG. 3)) was 4.82, the pIC50 (U2OS osteosarcoma cells) was 4.49 and the pEC50 (U2OS osteosarcoma cells; read-out: EC50 (estradiol sensitivity to osteosarcoma, FIG. 4)) was 4.54. For the same compound, the pIC50 [3] was at most 4.00 and the pIC50 [4] was at most 4.00.
